{"source": "patent US7846697B2", "about": "“Method of producing a low molecular weight organic compound in a cell” (BLMaps, priority 2003, dated 2010)", "type_in_all_cases": "cell-based", "key": {"E. coli strain JM109": {"tested_on": "E. coli strain JM109", "test": "Vanillin sensitivity (STV) on solid LB growth medium", "details": "no growth at 1/10000 dilution, growth at 1/100 severely inhibited, 24 hours", "experimental": "(§1) The three different E. coli strains TOP10, JM109, and KO1418 were grown for 18 hours in the appropriate media, after which serial dilutions in growth medium (dilution factors 1, 1/100, 1/10000 and 1/1000000) were made. Droplets of these cell suspensions were applied to Petri dishes containing solid LB growth medium with various concentrations of vanillin, and the plates were incubated at the appropriate growth temperature for 24 hours (E. coli), after which they were photographed. […] This number constituted the STV (Sensitivity To Vanillin) level. The STV numbers for the different microorganisms studied can be seen in Table 9.1."}, "E. coli strain KO1418": {"tested_on": "E. coli strain KO1418", "test": "Vanillin sensitivity (STV) on solid LB growth medium", "details": "no growth at 1/10000 dilution, growth at 1/100 severely inhibited, 24 hours", "experimental": "as §1"}, "E. coli strain TOP10": {"tested_on": "E. coli strain TOP10", "test": "Vanillin sensitivity (STV) on solid LB growth medium", "details": "no growth at 1/10000 dilution, growth at 1/100 severely inhibited, 24 hours", "experimental": "as §1"}, "[1]": {"tested_on": "E. coli strain JM109 transformants", "test": "Toxicity of vanillin with IPTG-induced expression of UGT85B1 or AS, growth on plates", "experimental": "The E. coli strains TOP10, JM109, and KO1418 were all transformed with the constructed plasmids pJH401, pJH402, pJH411 and pJH412, and pKK223-3 as control, employing standard transformation protocols. Transformants were selected for ampicilin resistance, and two transformants of each E. coli strain with each plasmid were kept for expression experiments. The E. coli transformants were inoculated from plate cultures into 2 ml liquid growth medium (LB medium containing ampicilin at 100 μg/ml), and allowed to grow for 20 hours at 37° C. The precultures were diluted 100 times 10^4 times and 10^6 times in growth medium, and 4 μl droplets of these cell suspensions were applied to the surface of Petri dishes containing solid LB-ampicilin medium containing varying concentrations of vanillin (based on the STV determinations described above), and without or with (to induce gene expression) 1 mM isopropyl thiogalactoside (IPTG). The plates were incubated at 37° C. for 24 hours, after which growth on the various concentrations of vanillin was monitored and recorded."}, "[2]": {"tested_on": "E. coli strain JM109 transformants", "test": "Toxicity of vanillin with constitutive expression of UGT85B1 or AS, growth on plates", "source_text": "(§2) For experimentation with constitutive expression of UGT85B1 and AS, the E. coli strains JM109, and K01418 were transformed with the constructed plasmids pJH 430, pJH431, pJH432, pJH433, pJH434, pJH435, pJH436, pJH437, pJH438, pJH439, pJH440, and pJH441, and pKOL30 as control, employing standard transformation protocols. Transformants were selected for ampicilin resistance, and two transformants of each E. coli strain with each plasmid were kept for expression experiments. The E. coli transformants were inoculated from plate cultures into 2 ml liquid growth medium (LB medium containing ampicilin at 100 μg/ml), and allowed to grow for 20 hours at 37° C. The precultures were diluted 100 times 10^4 times and 10^6 times in growth medium, and 4 μl droplets of these cell suspensions were applied to the surface of Petri dishes containing solid LB-ampicilin medium containing varying concentrations of vanillin (based on the STV determinations described above). The plates were incubated at 37° C. for 24 hours, after which growth on the various concentrations of vanillin was monitored and recorded."}, "[3]": {"tested_on": "E. coli strain KO1418 transformants", "test": "Toxicity of vanillin with constitutive expression of UGT85B1 or AS, growth on plates", "source_text": "as §2"}, "[4]": {"tested_on": "E. coli strain JM109 transformants", "test": "Toxicity of vanillin with IPTG-induced expression of UGT85B1 or AS, growth on plates", "details": "JM109 [pJH410], IPTG induction No"}, "[5]": {"tested_on": "E. coli strain KO1418 transformants", "test": "Toxicity of vanillin with IPTG-induced expression of UGT85B1 or AS, growth on plates", "parameters": "key to the marks not given beside the values", "details": "KO1418 [pJH410]"}}, "data": [{"molecule": "COc1cc(C=O)ccc1O", "note": "[Vanillin, vanillin]", "values": [{"measurement": "STV (Sensitivity To Vanillin) level", "setting": "E. coli strain JM109", "result": "0.14 % (w/v)"}, {"measurement": "STV (Sensitivity To Vanillin) level", "setting": "E. coli strain KO1418", "result": "0.18 % (w/v)"}, {"measurement": "STV (Sensitivity To Vanillin) level", "setting": "E. coli strain TOP10", "result": "0.12 % (w/v)"}, {"measurement": "growth", "setting": "[1]; JM109 [pJH401], 0.08% vanillin, IPTG induction No", "result": "++"}, {"measurement": "growth", "setting": "[1]; JM109 [pJH401], 0.08% vanillin, IPTG induction Yes", "result": "++"}, {"measurement": "growth", "setting": "[1]; JM109 [pJH401], 0.12% vanillin, IPTG induction No", "result": "++"}, {"measurement": "growth", "setting": "[1]; JM109 [pJH401], 0.12% vanillin, IPTG induction Yes", "result": "++"}, {"measurement": "growth", "setting": "[1]; JM109 [pJH401], 0.16% vanillin, IPTG induction No", "result": "−"}, {"measurement": "growth", "setting": "[1]; JM109 [pJH401], 0.16% vanillin, IPTG induction Yes", "result": "−"}, {"measurement": "growth", "setting": "[1]; JM109 [pJH401], 0.2% vanillin, IPTG induction No", "result": "−"}, {"measurement": "growth", "setting": "[1]; JM109 [pJH401], 0.2% vanillin, IPTG induction Yes", "result": "−"}, {"measurement": "growth", "setting": "[1]; JM109 [pJH402], 0.08% vanillin, IPTG induction No", "result": "++"}, {"measurement": "growth", "setting": "[1]; JM109 [pJH402], 0.08% vanillin, IPTG induction Yes", "result": "++"}, {"measurement": "growth", "setting": "[1]; JM109 [pJH402], 0.12% vanillin, IPTG induction No", "result": "++"}, {"measurement": "growth", "setting": "[1]; JM109 [pJH402], 0.12% vanillin, IPTG induction Yes", "result": "++"}, {"measurement": "growth", "setting": "[1]; JM109 [pJH402], 0.16% vanillin, IPTG induction No", "result": "+"}, {"measurement": "growth", "setting": "[1]; JM109 [pJH402], 0.16% vanillin, IPTG induction Yes", "result": "++"}, {"measurement": "growth", "setting": "[1]; JM109 [pJH402], 0.2% vanillin, IPTG induction No", "result": "−"}, {"measurement": "growth", "setting": "[1]; JM109 [pJH402], 0.2% vanillin, IPTG induction Yes", "result": "−"}, {"measurement": "growth", "setting": "[1]; JM109 [pJH410], 0.08% vanillin, IPTG induction Yes", "result": "++"}, {"measurement": "growth", "setting": "[1]; JM109 [pJH410], 0.12% vanillin, IPTG induction No", "result": "++"}, {"measurement": "growth", "setting": "[1]; JM109 [pJH410], 0.12% vanillin, IPTG induction Yes", "result": "++"}, {"measurement": "growth", "setting": "[1]; JM109 [pJH410], 0.16% vanillin, IPTG induction No", "result": "++"}, {"measurement": "growth", "setting": "[1]; JM109 [pJH410], 0.16% vanillin, IPTG induction Yes", "result": "+"}, {"measurement": "growth", "setting": "[1]; JM109 [pJH410], 0.2% vanillin, IPTG induction Yes", "result": "−"}, {"measurement": "growth", "setting": "[1]; JM109 [pKK223-3], 0.08% vanillin, IPTG induction No", "result": "++"}, {"measurement": "growth", "setting": "[1]; JM109 [pKK223-3], 0.08% vanillin, IPTG induction Yes", "result": "++"}, {"measurement": "growth", "setting": "[1]; JM109 [pKK223-3], 0.12% vanillin, IPTG induction No", "result": "++"}, {"measurement": "growth", "setting": "[1]; JM109 [pKK223-3], 0.12% vanillin, IPTG induction Yes", "result": "++"}, {"measurement": "growth", "setting": "[1]; JM109 [pKK223-3], 0.16% vanillin, IPTG induction No", "result": "−"}, {"measurement": "growth", "setting": "[1]; JM109 [pKK223-3], 0.16% vanillin, IPTG induction Yes", "result": "−"}, {"measurement": "growth", "setting": "[1]; JM109 [pKK223-3], 0.2% vanillin, IPTG induction No", "result": "−"}, {"measurement": "growth", "setting": "[1]; JM109 [pKK223-3], 0.2% vanillin, IPTG induction Yes", "result": "−"}, {"measurement": "growth", "setting": "[2]; JM109 [pJH430], 0.08% vanillin", "result": "+++"}, {"measurement": "growth", "setting": "[2]; JM109 [pJH430], 0.12% vanillin", "result": "+++"}, {"measurement": "growth", "setting": "[2]; JM109 [pJH430], 0.16% vanillin", "result": "++"}, {"measurement": "growth", "setting": "[2]; JM109 [pJH431], 0.08% vanillin", "result": "+++"}, {"measurement": "growth", "setting": "[2]; JM109 [pJH431], 0.12% vanillin", "result": "+++"}, {"measurement": "growth", "setting": "[2]; JM109 [pJH431], 0.16% vanillin", "result": "++"}, {"measurement": "growth", "setting": "[2]; JM109 [pJH432], 0.08% vanillin", "result": "+++"}, {"measurement": "growth", "setting": "[2]; JM109 [pJH432], 0.12% vanillin", "result": "+++"}, {"measurement": "growth", "setting": "[2]; JM109 [pJH432], 0.16% vanillin", "result": "+"}, {"measurement": "growth", "setting": "[2]; JM109 [pJH433], 0.08% vanillin", "result": "+++"}, {"measurement": "growth", "setting": "[2]; JM109 [pJH433], 0.12% vanillin", "result": "+++"}, {"measurement": "growth", "setting": "[2]; JM109 [pJH433], 0.16% vanillin", "result": "+"}, {"measurement": "growth", "setting": "[2]; JM109 [pKOL30], 0.08% vanillin", "result": "+++"}, {"measurement": "growth", "setting": "[2]; JM109 [pKOL30], 0.12% vanillin", "result": "++"}, {"measurement": "growth", "setting": "[2]; JM109 [pKOL30], 0.16% vanillin", "result": "−"}, {"measurement": "growth", "setting": "[3]; KO1418 [pJH430], 0.08% vanillin", "result": "+++"}, {"measurement": "growth", "setting": "[3]; KO1418 [pJH430], 0.12% vanillin", "result": "+++"}, {"measurement": "growth", "setting": "[3]; KO1418 [pJH430], 0.16% vanillin", "result": "+++"}, {"measurement": "growth", "setting": "[3]; KO1418 [pJH431], 0.08% vanillin", "result": "+++"}, {"measurement": "growth", "setting": "[3]; KO1418 [pJH431], 0.12% vanillin", "result": "+++"}, {"measurement": "growth", "setting": "[3]; KO1418 [pJH431], 0.16% vanillin", "result": "+++"}, {"measurement": "growth", "setting": "[3]; KO1418 [pJH432], 0.08% vanillin", "result": "+++"}, {"measurement": "growth", "setting": "[3]; KO1418 [pJH432], 0.12% vanillin", "result": "+++"}, {"measurement": "growth", "setting": "[3]; KO1418 [pJH432], 0.16% vanillin", "result": "+"}, {"measurement": "growth", "setting": "[3]; KO1418 [pJH433], 0.08% vanillin", "result": "+++"}, {"measurement": "growth", "setting": "[3]; KO1418 [pJH433], 0.12% vanillin", "result": "+++"}, {"measurement": "growth", "setting": "[3]; KO1418 [pJH433], 0.16% vanillin", "result": "+++"}, {"measurement": "growth", "setting": "[3]; KO1418 [pKOL30], 0.08% vanillin", "result": "+++"}, {"measurement": "growth", "setting": "[3]; KO1418 [pKOL30], 0.12% vanillin", "result": "++"}, {"measurement": "growth", "setting": "[3]; KO1418 [pKOL30], 0.16% vanillin", "result": "+"}, {"measurement": "growth", "setting": "[4]; 0.08% vanillin", "result": "++"}, {"measurement": "growth", "setting": "[4]; 0.2% vanillin", "result": "−"}, {"measurement": "growth", "setting": "[5]; 0.08% vanillin, IPTG induction Yes", "result": "++"}, {"measurement": "growth", "setting": "[5]; 0.12% vanillin, IPTG induction No", "result": "++"}, {"measurement": "growth", "setting": "[5]; 0.2% vanillin, IPTG induction Yes", "result": "++"}]}]}
